Data as given in US8993585B2, “Cyclic amine substituted pyrimidinediamines as PKC inhibitors” (Rigel Pharmaceuticals, Inc., priority 2007, dated 2015).

Tested on: Human primary T cells
Experiment: IL-2 ELISA, Human Primary T Cell, Anti-CD3+CD28+ (Example 3)
Type: cell-based
Conditions: anti-CD3+CD28 stimulation, 24 hours
Description: Human primary T cell isolation and culture: Human primary T cells were prepared as follows. […] The cells at the serum:ficoll interface were recovered and washed twice with 5 volumes of PBS. […] The primary T-cells were then washed twice with PBS to remove the IL-2.
Primary T cell stimulation and IL2 ELISA: Human primary T cells (100,000 cells per well) were pre-incubated with or without test compound in Yssel's medium for 1 hr at 37° C. Cells were then stimulated by transferring them to round-bottom 96-well plates pre-coated with 1 ug/ml αCD3 and 5 μg/ml αCD28. For counter assay, cells were instead stimulated by adding 8× stock solutions of PMA and ionomycin in Yssels (for final concentrations of 0.5 ng/ml PMA and 0.1 uM ionomycin, both from Calbiochem).

Row | Structure (SMILES) | IC50 [nM]
1 | CN1C(C)(C)CC(Nc2nc(Nc3ccc(N4CCNCC4)c(C(F)(F)F)c3)ncc2[N+](=O)[O-])CC1(C)C [Compound I-75] | 11300
2 | CN1C(C)(C)CC(Nc2nc(Nc3ccc(N4CCNCC4)c(Cl)c3)ncc2[N+](=O)[O-])CC1(C)C [Compound I-77] | 2590
3 | CN1C(C)(C)CC(Nc2nc(Nc3ccc(N4CCN(S(C)(=O)=O)CC4)c(C(F)(F)F)c3)ncc2[N+](=O)[O-])CC1(C)C [Compound I-78] | 928
4 | CCOC(=O)c1cnc(Nc2ccc(OC)c(Cl)c2)nc1NC1CC(C)(C)N(C)C(C)(C)C1 [Compound I-80] | 2690
5 | CCOC(=O)c1cnc(Nc2cccc(C#N)c2)nc1NC1CC(C)(C)N(C)C(C)(C)C1 [Compound I-81] | 28600
6 | CCOC(=O)c1cnc(Nc2ccc(N3CCN(C)CC3)c(C(F)(F)F)c2)nc1NC1CC(C)(C)N(C)C(C)(C)C1 [Compound I-82] | 3210
7 | CCOC(=O)c1cnc(Nc2ccc(N3CCN(S(C)(=O)=O)CC3)c(C(F)(F)F)c2)nc1NC1CC(C)(C)N(C)C(C)(C)C1 [Compound I-83] | 7760
8 | CCOC(=O)c1cnc(Nc2ccc(N3CCN(S(C)(=O)=O)CC3)c(Cl)c2)nc1NC1CC(C)(C)N(C)C(C)(C)C1 [Compound I-84] | 6850
9 | CN1C(C)(C)CC(Nc2nc(Nc3cccc(C#N)c3)ncc2C(N)=O)CC1(C)C [Compound I-86] | 4990
10 | CCOC(=O)c1cnc(Nc2ccc(N3CCN(C)CC3)c(Cl)c2)nc1NC1CC(C)(C)N(C)C(C)(C)C1 [Compound I-89] | 5800
11 | CN1C(C)(C)CC(Nc2nc(Nc3ccc(N4CCN(S(C)(=O)=O)CC4)c(C(F)(F)F)c3)ncc2C(N)=O)CC1(C)C [Compound I-90] | 2860
12 | CN1C(C)(C)CC(Nc2nc(Nc3ccc(N4CCN(S(C)(=O)=O)CC4)c(Cl)c3)ncc2C(N)=O)CC1(C)C [Compound I-91] | 3910
13 | CN1CCN(c2ccc(Nc3ncc(C(N)=O)c(NC4CC(C)(C)N(C)C(C)(C)C4)n3)cc2Cl)CC1 [Compound I-98] | 1070
14 | CN1C(C)(C)CC(Nc2nc(Nc3ccc(Br)cc3)ncc2F)CC1(C)C [Compound I-108] | 1150
15 | CN1C(C)(C)CC(Nc2nc(Nc3ccc(-c4cc5ccccc5s4)c(C(F)(F)F)c3)ncc2F)CC1(C)C [Compound I-114] | 1880
16 | Cc1csc(-c2ccc(Nc3ncc(F)c(NC4CC(C)(C)N(C)C(C)(C)C4)n3)cc2C(F)(F)F)c1 [Compound I-116] | 1230
17 | CN1C(C)(C)CC(Nc2nc(Nc3cc(C(F)(F)F)c(Br)c(C(F)(F)F)c3)ncc2F)CC1(C)C [Compound I-117] | 1250
18 | COc1ccc(Nc2ncc(F)c(NC3CC(C)(C)N(C)C(C)(C)C3)n2)cc1F [Compound I-127] | 1140
19 | COc1ccc(Nc2ncc(F)c(NC3CC(C)(C)N(C)C(C)(C)C3)n2)cc1OC [Compound I-130] | 1100
20 | CN1C(C)(C)CC(Nc2nc(Nc3ccc(NC(=O)c4ccccc4)cc3)ncc2F)CC1(C)C [Compound I-133] | 1130
21 | CN1C(C)(C)CC(Nc2nc(Nc3ccc(OCC(N)=O)cc3)ncc2F)CC1(C)C [Compound I-134] | 2430

Row | Structure (SMILES) | IC50 [nM]
22 | CC(C)OC(=O)COc1ccc(Nc2ncc(F)c(NC3CC(C)(C)N(C)C(C)(C)C3)n2)cc1 [Compound I-135] | 4640
23 | CNC(=O)COc1cccc(Nc2ncc(F)c(NC3CC(C)(C)N(C)C(C)(C)C3)n2)c1 [Compound I-136] | 1550
24 | CC(C)OC(=O)Nc1ccc(Nc2ncc(F)c(NC3CC(C)(C)N(C)C(C)(C)C3)n2)cc1 [Compound I-137] | 1640
25 | CCNC(=O)Nc1cccc(Nc2ncc(F)c(NC3CC(C)(C)N(C)C(C)(C)C3)n2)c1 [Compound I-138] | 3150
26 | CC(C)OC(=O)Nc1cccc(Nc2ncc(F)c(NC3CC(C)(C)N(C)C(C)(C)C3)n2)c1 [Compound I-139] | 1570
27 | CN1C(C)(C)CC(Nc2nc(Nc3cccc(-c4cnn(C)c4)c3)ncc2F)CC1(C)C [Compound I-143] | 1410
28 | CN1C(C)(C)CC(Nc2nc(Nc3ccc(-c4cnn(C)c4)cc3)ncc2F)CC1(C)C [Compound I-144] | 1060
29 | CCNC(=O)Nc1ccc(Nc2ncc(F)c(NC3CC(C)(C)N(C)C(C)(C)C3)n2)cc1 [Compound I-149] | 4360
30 | CN1C(C)(C)CC(Nc2nc(Nc3ccc(-c4cc5ccccc5s4)c(Cl)c3)ncc2F)CC1(C)C [Compound I-156] | 2890
31 | CC(=O)Nc1ccc(Nc2ncc(F)c(NC3CC(C)(C)N(C)C(C)(C)C3)n2)cc1C(F)(F)F [Compound I-161] | 1050
32 | CN1C(C)(C)CC(Nc2nc(Nc3ccc(F)c(C#N)c3)ncc2C(F)(F)F)CC1(C)C [Compound I-170] | 2650
33 | CN1C(C)(C)CC(Nc2nc(Nc3ccc(F)c(-c4cccnc4)c3)ncc2F)CC1(C)C [Compound I-180] | 914
34 | CN1C(C)(C)CC(Nc2nc(Nc3ccc(F)c(-c4cc5ccccc5s4)c3)ncc2F)CC1(C)C [Compound I-181] | 1320
35 | COc1ccc(Nc2ncc(F)c(NC3CC(C)(C)N(C)C(C)(C)C3)n2)cc1-c1ccoc1 [Compound I-183] | 901
36 | COc1ccc(Nc2ncc(F)c(NC3CC(C)(C)N(C)C(C)(C)C3)n2)cc1-c1cnn(C)c1 [Compound I-184] | 2290
37 | Cc1ccc(Nc2ncc(F)c(NC3CC(C)(C)N(C)C(C)(C)C3)n2)cc1-c1cc2ccccc2s1 [Compound I-189] | 1220
38 | CN1C(C)(C)CC(Nc2nc(Nc3ccc(F)c(-c4ccoc4)c3)ncc2F)CC1(C)C [Compound I-192] | 941
39 | COc1ccc(Nc2ncc(F)c(NC3CC(C)(C)N(C)C(C)(C)C3)n2)cc1-c1cc2ccccc2s1 [Compound I-195] | 1120
40 | CN1C(C)(C)CC(Nc2nc(Nc3ccc(N4CCN(S(C)(=O)=O)CC4)c(C#N)c3)ncc2C#N)CC1(C)C [Compound I-196] | 971
41 | CN1C(C)(C)CC(Nc2nc(Nc3cc(-c4cc5ccccc5s4)cc(C(F)(F)F)c3)ncc2F)CC1(C)C [Compound I-205] | 965
42 | CN1C(C)(C)CC(Nc2nc(Nc3ccc(-n4cccc4)c(C#N)c3)ncc2C#N)CC1(C)C [Compound I-206] | 1030

Next, values leading:

Row | IC50 [nM] | Structure (SMILES)
43 | 657 | CN1CCN(c2ccc(Nc3ncc([N+](=O)[O-])c(NC4CC(C)(C)N(C)C(C)(C)C4)n3)cc2C(F)(F)F)CC1 [Compound I-74]
44 | 596 | CN1CCN(c2ccc(Nc3ncc([N+](=O)[O-])c(NC4CC(C)(C)N(C)C(C)(C)C4)n3)cc2Cl)CC1 [Compound I-76]
45 | 552 | CN1C(C)(C)CC(Nc2nc(Nc3cccc(-c4ccncc4)c3)ncc2F)CC1(C)C [Compound I-79]
46 | 631 | COc1ccc(Nc2ncc(C(N)=O)c(NC3CC(C)(C)N(C)C(C)(C)C3)n2)cc1Cl [Compound I-85]
47 | 287 | CN1C(C)(C)CC(Nc2nc(Nc3ccc(N4CCN(S(C)(=O)=O)CC4)c(C(F)(F)F)c3)ncc2C(F)(F)F)CC1(C)C [Compound I-88]
48 | 304 | CN1C(C)(C)CC(Nc2nc(Nc3ccc(-c4ccncc4)c(Cl)c3)ncc2F)CC1(C)C [Compound I-99]
49 | 750 | CN1C(C)(C)CC(Nc2nc(Nc3cccc(-c4cccnc4)c3)ncc2F)CC1(C)C [Compound I-107]
50 | 491 | CN1C(C)(C)CC(Nc2nc(Nc3ccc(Br)c(F)c3)ncc2F)CC1(C)C [Compound I-110]
51 | 490 | Cc1cc(Nc2ncc(F)c(NC3CC(C)(C)N(C)C(C)(C)C3)n2)ccc1Br [Compound I-111]
52 | 876 | CCc1cc(Nc2ncc(F)c(NC3CC(C)(C)N(C)C(C)(C)C3)n2)cc(C#N)c1Cl [Compound I-128]
53 | 629 | COc1c(C)cc(Nc2ncc(F)c(NC3CC(C)(C)N(C)C(C)(C)C3)n2)cc1C [Compound I-131]
54 | 897 | COc1cc(Nc2ncc(F)c(NC3CC(C)(C)N(C)C(C)(C)C3)n2)cc(C(F)(F)F)c1 [Compound I-145]
55 | 701 | CN1C(C)(C)CC(Nc2nc(Nc3ccc(-c4cnn(C)c4)c(F)c3)ncc2F)CC1(C)C [Compound I-150]
56 | 635 | Cc1cc(Nc2ncc(F)c(NC3CC(C)(C)N(C)C(C)(C)C3)n2)ccc1-c1cnn(C)c1 [Compound I-151]
57 | 604 | CN1C(C)(C)CC(Nc2nc(Nc3ccc(C#N)c(C(F)(F)F)c3)ncc2F)CC1(C)C [Compound I-152]
58 | 684 | CN1C(C)(C)CC(Nc2nc(Nc3ccc(Cl)c(C#N)c3)ncc2C(F)(F)F)CC1(C)C [Compound I-169]
59 | 680 | Cc1ccc(Nc2ncc(C(F)(F)F)c(NC3CC(C)(C)N(C)C(C)(C)C3)n2)cc1C#N [Compound I-171]
60 | 669 | CN1C(C)(C)CC(Nc2nc(Nc3ccc(-n4cccc4)c(C#N)c3)ncc2C(F)(F)F)CC1(C)C [Compound I-172]
61 | 655 | CN1C(C)(C)CC(Nc2nc(Nc3ccc(N4CCN(S(C)(=O)=O)CC4)c(C#N)c3)ncc2C(F)(F)F)CC1(C)C [Compound I-176]
62 | 764 | CN1C(C)(C)CC(Nc2nc(Nc3ccc(OC(F)(F)F)c(Br)c3)ncc2F)CC1(C)C [Compound I-177]
63 | 675 | CN1C(C)(C)CC(Nc2nc(Nc3ccc(F)c(-c4cnn(C)c4)c3)ncc2F)CC1(C)C [Compound I-182]
64 | 700 | CN1C(C)(C)CC(Nc2nc(Nc3ccc(F)c(-c4ccncc4)c3)ncc2F)CC1(C)C [Compound I-191]
65 | 653 | COc1ccc(Nc2ncc(F)c(NC3CC(C)(C)N(C)C(C)(C)C3)n2)cc1-c1ccncc1 [Compound I-193]
66 | 804 | COc1ccc(Nc2ncc(F)c(NC3CC(C)(C)N(C)C(C)(C)C3)n2)cc1-c1cccnc1 [Compound I-194]
67 | 522 | CN1C(C)(C)CC(Nc2nc(Nc3cc(-c4ccncc4)cc(C(F)(F)F)c3)ncc2F)CC1(C)C [Compound I-201]
68 | 615 | CN1C(C)(C)CC(Nc2nc(Nc3cc(-c4cccnc4)cc(C(F)(F)F)c3)ncc2F)CC1(C)C [Compound I-202]
